The record followed here is article PMC11594175 (2024).

The test system of this experiment is HD3 with inactivated substrate (rA to dA at cleavage site) (DNA, ribozyme, dA in place of rA at the cleavage site of the substrate strand) CATCTCTTAACGGGGCTGTGCGGCTAGGAAGTAATAGTGAG/CTCACTATAGGAAGAGATG
In words: CD titration at 267 nm. To be noted: 500 mM Na+ (NaCl), 500 mM K+ (KCl), no Mg2+; 50 mM HEPES pH 7.5, 0.5 mM EDTA, 25 °C; 30 µM DNA; 0-10 mM histidine.

Structures are written as SMILES.

In the case of `N[C@@H](Cc1cnc[nH]1)C(=O)O`, the “Ka(CD)” value is given as ~ 2.0 × 10^3 M^-1.
